Test results published in patent US20240246964A1 (Arbutus Biopharma Corporation, priority 2021, published 2024).

Key:
[1] = molecular target: PD-L1 His protein / PD-1 Fc protein (Homo sapiens (Human), UniProt Q9NZQ7); test: HTRF Assay (PD-1/PD-L1 interaction); assay type: binding; conditions: PD-L1 His 6 nM, PD-1 Fc 6 nM
human PD-L1 = human PD-L1 (Homo sapiens (Human), UniProt Q9NZQ7); test: T cell activation luciferase reporter cell culture system (T Cell Activation Assay); assay type: cell-based; conditions: luciferase reporter assay; PD-L1 aAPC/CHO-K1 cells with PD-1 effector Jurkat T cells
Sequence of human PD-L1 (Q9NZQ7 19-290): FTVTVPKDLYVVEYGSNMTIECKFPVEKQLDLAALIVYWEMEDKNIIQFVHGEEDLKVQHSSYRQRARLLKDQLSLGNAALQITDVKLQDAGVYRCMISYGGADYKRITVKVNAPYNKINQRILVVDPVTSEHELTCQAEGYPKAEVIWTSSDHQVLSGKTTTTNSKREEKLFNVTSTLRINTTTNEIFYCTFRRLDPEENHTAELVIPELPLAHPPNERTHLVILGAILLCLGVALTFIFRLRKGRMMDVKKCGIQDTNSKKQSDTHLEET

Sequence of PD-L1 His protein / PD-1 Fc protein (Q9NZQ7 19-238): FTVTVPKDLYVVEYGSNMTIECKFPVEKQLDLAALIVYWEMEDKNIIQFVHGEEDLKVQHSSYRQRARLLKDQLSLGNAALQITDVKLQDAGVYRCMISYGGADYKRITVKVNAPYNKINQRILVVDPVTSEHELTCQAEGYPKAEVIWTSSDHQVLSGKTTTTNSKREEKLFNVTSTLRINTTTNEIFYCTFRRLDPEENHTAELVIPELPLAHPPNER

Compound CNCc1cn(C)c2cc(-c3nccc(-c4cccc(-c5ccc(CNC[C@@H]6CCC(=O)N6)c(OC)n5)c4Cl)c3Cl)ccc12 [Compound 31, (S)-5-((((6-(2-chloro-3-(3-chloro-2-(1-methyl-3-((methylamino)methyl)-1H-indol-6-yl)pyridin-4-yl)phenyl)-2-methoxypyridin-3-yl)methyl)amino)methyl)pyrrolidin-2-one] has an IC50 [1] of 0.0003 µM and an EC50 (human PD-L1) of 0.134 µM.

CCNCc1cn(C)c2cc(-c3nccc(-c4cccc(-c5ccc(CNC[C@@H]6CCC(=O)N6)c(OC)n5)c4Cl)c3Cl)ccc12 [Compound 32, (S)-5-((((6-(2-chloro-3-(3-chloro-2-(3-((ethylamino)methyl)-1-methyl-1H-indol-6-yl)pyridin-4-yl)phenyl)-2-methoxypyridin-3-yl)methyl)amino)methyl)pyrrolidin-2-one] was tested, and the IC50 [1] was 0.0007 µM and the EC50 (human PD-L1) was 0.261 µM.

COc1nc(-c2cccc(-c3ccnc(-c4ccc5c(CN(C)C)cn(C)c5c4)c3Cl)c2Cl)ccc1CNC[C@@H]1CCC(=O)N1 [Compound 33, (S)-5-((((6-(2-chloro-3-(3-chloro-2-(3-((dimethylamino)methyl)-1-methyl-1H-indol-6-yl)pyridin-4-yl)phenyl)-2-methoxypyridin-3-yl)methyl)amino)methyl)pyrrolidin-2-one] gave an IC50 [1] of 0.0004 µM and an EC50 (human PD-L1) of 0.224 µM.

COc1nc(-c2cccc(-c3ccnc(-c4ccc5c(CNC[C@@H]6CCO6)cn(C)c5c4)c3Cl)c2Cl)ccc1CNC[C@@H]1CCC(=O)N1 [Compound 34, (S)-5-((((6-(2-chloro-3-(3-chloro-2-(1-methyl-3-(((((S)-oxetan-2-yl)methyl)amino)methyl)-1H-indol-6-yl)pyridin-4-yl)phenyl)-2-methoxypyridin-3-yl)methyl)amino)methyl)pyrrolidin-2-one] showed an IC50 [1] of 0.0721 µM and an EC50 (human PD-L1) of 0.122 µM.

Compound COc1nc(-c2cccc(-c3ccnc(-c4ccc5c(CNC[C@H](C)O)cn(C)c5c4)c3Cl)c2Cl)ccc1CNC[C@@H]1CCC(=O)N1 [Compound 35, (S)-5-((((6-(2-chloro-3-(3-chloro-2-(3-((((S)-2-hydroxypropyl)amino)methyl)-1-methyl-1H-indol-6-yl)pyridin-4-yl)phenyl)-2-methoxypyridin-3-yl)methyl)amino)methyl)pyrrolidin-2-one] has an IC50 [1] of 0.0011 µM and an EC50 (human PD-L1) of 0.855 µM.

COc1nc(-c2cccc(-c3ccnc(-c4ccc5c(CNCC(C)(C)O)cn(C)c5c4)c3Cl)c2Cl)ccc1CNC[C@@H]1CCC(=O)N1 [Compound 36, (S)-5-((((6-(2-chloro-3-(3-chloro-2-(3-(((2-hydroxy-2-methylpropyl)amino)methyl)-1-methyl-1H-indol-6-yl)pyridin-4-yl)phenyl)-2-methoxypyridin-3-yl)methyl)amino)methyl)pyrrolidin-2-one] showed an IC50 [1] of 0.0034 µM and an EC50 (human PD-L1) of 0.0821 µM.

Compound COc1nc(-c2cccc(-c3ccnc(-c4ccc5c(CNCC(C)C)cn(C)c5c4)c3Cl)c2Cl)ccc1CNC[C@@H]1CCC(=O)N1 [Compound 38, (S)-5-((((6-(2-chloro-3-(3-chloro-2-(3-((isobutylamino)methyl)-1-methyl-1H-indol-6-yl)pyridin-4-yl)phenyl)-2-methoxypyridin-3-yl)methyl)amino)methyl)pyrrolidin-2-one] has an IC50 [1] of 0.116 µM and an EC50 (human PD-L1) of 0.369 µM.

For COc1nc(-c2cccc(-c3ccnc(-c4ccc5c(CN(C)CCO)cn(C)c5c4)c3Cl)c2Cl)ccc1CNC[C@@H]1CCC(=O)N1 [Compound 39, (S)-5-((((6-(2-chloro-3-(3-chloro-2-(3-(((2-hydroxyethyl)(methyl)amino)methyl)-1-methyl-1H-indol-6-yl)pyridin-4-yl)phenyl)-2-methoxypyridin-3-yl)methyl)amino)methyl)pyrrolidin-2-one], the IC50 [1] was 0.001 µM and the EC50 (human PD-L1) was 0.0618 µM.
